# Laboratory results taken from patent US8568806B2, “Stable and bioavailable compositions of isomers of lycopene for skin and hair” (Indena, S.p.A., priority 2006, dated 2013).
# Test: Stability of pure lycopene isomers in n-hexane during storage at room temperature
# Assay type: physicochemical
# Details: storage in n-hexane at room temperature in the absence of light
# Procedure: Pure 5-Z, 9-Z, 13-Z and all-E lycopene were isolated from isomerised tomato oleoresin (submitted to 1 hour heating), by collecting the fractions containing the corresponding peaks after HPLC separation (see below the experimental conditions). Peaks were collected during two consecutive HPLC runs and the corresponding fractions were pooled.
# Lycopene isomer profiles were determined by normal phase HPLC according to the method described by Schierle et al. (Schierle, J., Bretzel, W., Buhler, I., Faccin, N., Hess, D., Steiner, K., Schuep, W. (1997). Food. Chem. 59: 459). Samples of isomerized oleoresins were dissolved in n-hexane containing 50 ppm BHT and spun at maximum speed in an Eppendorf Lab centrifuge. The resulting supernatants were immediately analyzed by HPLC. The HPLC system used was a 1100 series Hewlett-Packard model equipped with an ultraviolet-visible photodiode array detector. Data were simultaneously acquired at 470 nm, 464 nm, 346 nm and 294 nm. […]
# Amounts of lycopene isomers were calculated based on surface areas of the HPLC peaks using the same extinction coefficient as the all-E lycopene. […]
# Stability of lycopene isomers was investigated both in n-hexane and in a tomato oleoresin isomerized by 4 hour heating in ethyl acetate. […] Total lycopene concentration and lycopene isomer profiles were measured at various time intervals during the storage. […]
compound,measurement,value
CC(C)=CCC/C(C)=C/C=C/C(C)=C/C=C/C(C)=C\C=C\C=C(C)\C=C\C=C(C)\C=C\C=C(/C)CCC=C(C)C [13-Z lycopene],relative stability of the isomer,less stable isomer
